Key:
mouse FP receptor = biological target: T1, mouse FP receptor (Mus musculus, UniProt P43117); test: FP agonist activity (intracellular calcium concentration) in FP-CHO cells; format: cell-based; conditions: for EC50: FP-CHO cells, intracellular calcium concentration, read-out: Agonist activity on various prostanoid receptors: EC50 value, FP
T1 construct: expressed in transfected cells; host or cells: CHO cells (FP-CHO)
Source text: (§1) (1-1) Measurement of Agonist Activity on Various Mouse Prostanoid Receptors
(§2) Using CHO cells (FP-CHO, EP1-CHO and IP-CHO, respectively) in which various mouse prostanoid receptors were forcibly expressed, respectively, agonist activity of test compounds on various prostanoid receptors was studied employing an intracellular calcium concentration regarding FP and EP1, and an intracellular cyclic AMP (hereinafter, abbreviated as cAMP) production amount regarding IP, as an index.
(§3) The test compound and a control substance (PGE2 and iroprost) were dissolved with dimethyl sulfoxide (DMSO) to prepare a 10 mmol/L solution. Regarding the prepared 10 mmol/L solution, upon use, the 10 mmol/L solution was thawed, stepwisely-diluted using DMSO, and diluted with a buffer solution for measurement or a buffer solution for measurement 2, which was subjected to an experiment.
(§4) Cells forcibly expressing various mouse prostanoid receptors were standing-cultured at 37° C. in the presence of 5% CO2 using an α-MEM medium (Sigma) (for culturing FP-CHO and EP1-CHO) containing inactivated (56° C., 30 minutes) 9.8 vol % dialysed-FBS (Invitrogen) and penicillin-streptomycin-glutamine (GIBCO-BRL), or nucleic acid-containing α-MEM (Sigma) (for culturing IP-CHO) containing inactivated (56° C., 30 minutes) 9.8 vol % dialysed-FBS (Invitrogen) and penicillin-streptomycin glutamine (Invitrogen). Subculturing was performed by the following method.
(§5) The medium was removed, and washed with a phosphate-buffered physiological saline not containing Ca^2+ and Mg^2+ two times. A suitable amount of trypsin-EDTA (Invitrogen) was added, this was incubated at 37° C. for about 3 minutes, cells were peeled, and a medium having a volume which is 10-fold a volume of trypsin-EDTA was added to stop an enzymatic reaction. After cells were recovered (120 g) into a centrifuging tube, and centrifuged at room temperature for 3 minutes, the supernatant was removed. Cells were suspended in a suitable amount of a medium, and seeded in a culturing flask.
(§6) (1-2) Measurement of FP and EP1 Agonist Activity (Measurement of Intracellular Calcium Concentration)
(§7) Regarding FP-CHO and EP1-CHO, by the same method as that of subculturing, cells were peeled and suspended and, before two days from measurement, the suspension was seeded on a 96-well UV plate so that the cell number per well became 1.0×10^4, and standing-cultured at 37° C. in the presence of 5% CO2. On the measurement day, after the medium was removed from each well of the 96-well UV plate, each well was washed with a phosphate-buffered physiological saline not containing Ca^2+ and Mg^2+ once. To each well was added 100 μL of a medium containing 5 μmol/L fura 2-AM (DOJINDO), 2.5 mmol/L Probenecid (Sigma), 20 μmol/L indometacin (Sigma) and 10 mmol/L HEPES (Invitrogen), and this was incubated for about 60 minutes in a CO2 incubator. After completion of the incubation, the medium was removed, and this was washed with a buffer solution for measurement (Hank's balanced salt solution (Nissui Pharmaceutical Co., Ltd., 9.8 g of the present product was dissolved in 1 L distilled water) containing 0.1 or 1 w/v % bovine serum albumin, 2 μmol/L indometacin, 2.5 mmol/L Probenecid and 10 mmol/L HEPES-NaOH (pH 7.4)) two times. To each well was added 120 μL of a buffer solution for measurement, and this was allowed to stand in a CO2 incubator for 30 minutes, and stabilized, which was subjected to an experiment.
(§8) The 96-well UV plate was set in a fluorescent spectral photometer (FDSS-3000, Hamamatsu Photonics K.K.), and an intracellular calcium concentration was measured. A buffered solution for measurement ([…]) containing an agonist at a variety of concentrations was added to perform a reaction. Measurement of an intracellular calcium concentration was performed by irradiating cells with excited light of 340 nm and 380 nm alternately, measuring a fluorescent intensity at 500 nm, and obtaining a fluorescent intensity ratio of 2-wavelength excitation. […]

mouse EP1 receptor = biological target: T2, mouse EP1 receptor (Mus musculus, UniProt P35375); test: EP1 agonist activity (intracellular calcium concentration) in EP1-CHO cells; format: cell-based; conditions: for EC50: EP1-CHO cells, intracellular calcium concentration, read-out: Agonist activity on various prostanoid receptors: EC50 value, EP1
T2 construct: expressed in transfected cells; host or cells: CHO cells (EP1-CHO)
T2 sequence (P35375 1-405): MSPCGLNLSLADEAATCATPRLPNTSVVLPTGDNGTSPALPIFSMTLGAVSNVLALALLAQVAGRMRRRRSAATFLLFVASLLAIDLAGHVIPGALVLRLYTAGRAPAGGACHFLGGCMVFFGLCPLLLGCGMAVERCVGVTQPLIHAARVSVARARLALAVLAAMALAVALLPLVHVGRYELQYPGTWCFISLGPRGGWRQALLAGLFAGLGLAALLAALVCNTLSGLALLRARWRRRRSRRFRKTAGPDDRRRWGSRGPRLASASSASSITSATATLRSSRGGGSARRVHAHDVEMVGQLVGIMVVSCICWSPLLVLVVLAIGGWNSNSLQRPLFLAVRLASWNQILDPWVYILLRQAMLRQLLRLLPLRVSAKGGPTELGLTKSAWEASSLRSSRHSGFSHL
Source text: as §1, §2, §3, §4, §5, §6, §7, §8

mouse IP receptor = biological target: T3, mouse IP receptor (Mus musculus, UniProt P43252); test: IP agonist activity (cAMP concentration) in IP-CHO cells; format: cell-based; conditions: for EC50: IP-CHO cells, cAMP production, read-out: Agonist activity on various prostanoid receptors: EC50 value, IP
T3 construct: expressed in transfected cells; host or cells: CHO cells (IP-CHO)
Source text: as §1, §2, §3, §4, §5
(1-3) Measurement of IP Agonist Activity (Measurement of cAMP Concentration)
On the measurement day, a medium was removed, and IP-CHO was washed with a phosphate-buffered physiological saline containing 2 mmol/L EDTA and not containing Ca^2+ and Mg^2+ once. A suitable amount of a phosphate-buffered physiological containing 2 mmol/L EDTA and not containing Ca^2+ and Mg^2+ was added, this was incubated at 37° C. for about 10 minutes, cells were peeled, cells were recovered (500 g) into a centrifuging tube, and centrifuged at room temperature for 3 minutes, and the supernatant was removed.
Cells were suspended in a suitable amount of a buffer solution for measurement 1 (MEM medium (Invitrogen) containing 0.1 w/v % bovine serum albumin (Sigma) and 2 μmol/L diclofenac (Sigma)), and centrifuged at room temperature for 3 minutes at 500 g, and the supernatant was removed. Cells were suspended in a buffer solution for measurement 2 (MEM medium (Invitrogen) containing 0.1 w/v % bovine serum albumin (Sigma), 2 μmol/L diclofenac (Sigma) and 1 mmol/L 3-isobutyl-1-methylxanthine), and each 25 μL of the suspension was dispensed into a 96-well ½ area plate so that the cell number per well became 5.0×10^4. A buffer solution for measurement 2 (25 μL) containing an agonist at a variety of concentrations was added to perform a reaction at room temperature for 30 minutes. Measurement of a cAMP concentration was performed using the cAMP HTRF HiRange kit (CIS bio International). According to the two step protocol of the kit manual, each 25 μL of cAMP-D2 and cryptate diluted with a lysis buffer were added, and this was incubated at room temperature for 1 hour. After incubation for 1 hour, time resolution fluorescence at 620 nm and 660 nm when excited at 340 nm was measured using Analyst GF (Molecular Device), and a ratio (TRF ratio) was obtained, thereby, a cAMP concentration was calculated from a calibration line. […]

male dog (TOYO Beagle) = test: Intraocular pressure lowering action in dog after ocular instillation; format: in vivo
Description: (2-1) Intraocular Pressure Lowering Action
To one eye of a male dog (TOYO Beagle) which had been sufficiently acclimated in advance was ocular-instilled 30 μL of each test compound (compound of Example 16 (35), compound of Example 16 (3) and compound of Example 16(25)) which had been adjusted with a base (containing citrate buffer pH 6.5, 0.5% polysorbate 80, 1% propylene glycol, 0.01% benzalkonium chloride) to 0.01% (w/v) or 0.001% (w/v), respectively. The other eye was not treated. As a positive control compound, latanoprost which is the known compound was used.
Thereafter, an ocular surface anesthetic (Benoxil eye drops 0.4%, Santen Pharmaceutical Co., Ltd.) was subjected to ocular instillation to locally anesthetize eyes, and an intraocular pressure of each test compound before ocular instillation and after 2, 4, 6, 8, and 24 hours from ocular instillation was measured. An intraocular pressure was measured using a pneumatic applanation flat tonometer (Model 30 Classic, REICHERT). An intraocular pressure lowering rate (%) was calculated by the following equation. Intraocular pressure lowering rate (%)=(intraocular pressure value before ocular instillation−intraocular pressure value at each point)/(intraocular pressure value before ocular instillation)×100 [Mathematic 1]

[1] = system: male rabbit (NewZealandWhite); test: Aqueous humor protein concentration in rabbit after ocular instillation; format: in vivo; conditions: ocular instillation 30 μL, 0.1% (w/v), 0-8 hours
Description: (2-2) Assessment of Ocular Stimulating Property and Aqueous Humor Protein Concentration
To one eye of a male rabbit (NewZealandWhite, 2.0 to 3.0 kg) was ocular-instilled 30 μL of the compound of Example 16 (35), the compound of Example 16 (3) and the compound of Example 16 (25) which had been adjusted to 0.1% (w/v) with a base (containing citrate buffer pH 6.5, 0.5% polysorbate 80, 1% propylene glycol, 0.01% benzalkonium chloride), respectively. Thereafter, an aqueous humor in anterior chamber after 0, 1, 2, 4, 6 and 8 hours from ocular instillation was collected, and a protein concentration in the humor was measured. As a comparative compound, the aforementioned methyl ester of the compound of Example 12 described in Patent Literature 2 (i.e. compound of Example 10 described in Patent Literature 2) (hereinafter, abbreviated as Comparative Compound B in some cases) was used.
Regarding any test compound, a dose until a dissolution limit (150 to 1000 μg/mL) was administered and action of each active body was assessed.

T3 sequence (P43252 whole entry): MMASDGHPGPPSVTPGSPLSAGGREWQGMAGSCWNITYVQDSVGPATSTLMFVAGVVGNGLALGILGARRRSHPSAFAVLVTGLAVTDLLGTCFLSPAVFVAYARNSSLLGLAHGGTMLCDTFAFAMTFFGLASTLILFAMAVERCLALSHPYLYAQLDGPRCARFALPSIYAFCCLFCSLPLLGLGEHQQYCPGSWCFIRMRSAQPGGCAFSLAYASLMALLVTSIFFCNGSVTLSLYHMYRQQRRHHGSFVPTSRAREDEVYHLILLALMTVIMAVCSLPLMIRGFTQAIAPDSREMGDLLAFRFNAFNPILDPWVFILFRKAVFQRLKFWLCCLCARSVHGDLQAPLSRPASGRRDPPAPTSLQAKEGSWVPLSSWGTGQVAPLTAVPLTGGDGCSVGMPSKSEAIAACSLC
T1 sequence (P43117 whole entry): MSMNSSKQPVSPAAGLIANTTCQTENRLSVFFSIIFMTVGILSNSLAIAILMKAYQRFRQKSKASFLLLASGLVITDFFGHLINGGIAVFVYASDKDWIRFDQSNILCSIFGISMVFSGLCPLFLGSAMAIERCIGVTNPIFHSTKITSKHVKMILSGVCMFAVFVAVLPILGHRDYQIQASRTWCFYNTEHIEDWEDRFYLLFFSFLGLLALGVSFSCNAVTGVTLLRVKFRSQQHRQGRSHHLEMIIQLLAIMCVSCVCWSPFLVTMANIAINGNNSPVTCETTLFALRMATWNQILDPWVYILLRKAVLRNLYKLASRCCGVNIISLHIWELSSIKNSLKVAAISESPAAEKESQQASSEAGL

| SMILES | Agonist activity on a FP receptor (in words) (mouse FP receptor; summary of Table 7) | Agonist activity on an EP1 receptor (in words) (mouse EP1 receptor; summary of Table 7) | Agonist activity on an IP receptor (in words) (mouse IP receptor; summary of Table 7) | Intraocular pressure lowering action compared with positive control latanoprost (in words) (male dog (TOYO Beagle)) | Action on protein concentration in aqueous humor (in words) [1] | EC50 (mouse FP receptor) | EC50 (mouse EP1 receptor) | EC50 (mouse IP receptor) |
| --- | --- | --- | --- | --- | --- | --- | --- | --- |
| O=C(O)CCC[C@H]1CC[C@@H]2[C@@H](/C=C/[C@@H](O)COc3ccccc3)[C@H](O)C[C@@H]2O1 [Comparative Compound A, reference compound] | has agonist activity | has agonist activity | has agonist activity |  |  |  |  |  |
| CC(C)OC(=O)CCC[C@H]1CC[C@@H]2[C@@H](/C=C/[C@@H](O)COc3cccc(Cl)c3)[C@H](O)C[C@@H]2OC1 [Example 16 (3), 2-Propanyl 4-{(3S, 5aR, 6R, 7R, 8aS)-6-[(1E, 3R)-4-(3-chlorophenoxy)-3-hydroxy-1-buten-1-yl]-7-hydroxyoctahydro-2H-cyclopenta[b]oxepin-3-yl}butanoate] |  |  |  | stronger intraocular pressure lowering action as compared with latanoprost | no action of raising a protein concentration in an aqueous humor |  |  |  |
| O=C(O)CCC[C@H]1CC[C@@H]2[C@@H](/C=C/[C@@H](O)COc3cccc(Cl)c3)[C@H](O)C[C@@H]2OC1 [Example 17 (3), 4-{(3S, 5aR, 6R, 7R, 8aS)-6-[(1E, 3R)-4-(3-chlorophenoxy)-3-hydroxy-1-buten-1-yl]-7-hydroxyoctahydro-2H-cyclopenta[b]oxepin-3-yl}butanoic acid] |  |  |  |  |  | 3 nM | 3200 nM | > 10000 nM |
| Cc1cccc(OC[C@H](O)/C=C/[C@@H]2[C@H]3CC[C@H](CCCC(=O)O)CO[C@H]3C[C@H]2O)c1 [Example 17 (4), 4-{(3S, 5aR, 6R, 7R, 8aS)-7-hydroxy-6-[(1E, 3R)-3-hydroxy-4-(3-methylphenoxy)-1-buten-1-yl]octahydro-2H-cyclopenta[b]oxepin-3-yl}butanoic acid] |  |  |  |  |  | 8.8 nM | > 10000 nM | > 10000 nM |
| O=C(O)CCC[C@H]1CC[C@@H]2[C@@H](/C=C/[C@@H](O)COc3ccccc3)[C@H](O)C[C@@H]2OC1 [Example 17 (23), 4-{(3S, 5aR, 6R, 7R, 8aS)-7-hydroxy-6-[(1E, 3R)-3-hydroxy-4-phenoxy-1-buten-1-yl]octahydro-2H-cyclopenta(b]oxepin-3-yl}butanoic acid] |  |  |  |  |  | 8.3 nM | 100 nM | > 10000 nM |
| O=C(O)CCC[C@H]1CC[C@@H]2[C@@H](/C=C/[C@@H](O)COc3cc(F)ccc3F)[C@H](O)C[C@@H]2OC1 [Example 17 (25), 4-{(3S, 5aR, 6R, 7R, 8aS)-6-[(1E, 3R)-4-(2,5-difluorophenoxy)-3-hydroxy-1-buten-1-yl]-7-hydroxyoctahydro-2H-cyclopenta[b]oxepin-3-yl}butanoic acid] |  |  |  |  |  | 2.4 nM | 857 nM | > 10000 nM |
| O=C(O)COC[C@H]1CC[C@@H]2[C@@H](/C=C/[C@@H](O)COc3cc(F)cc(Cl)c3)[C@H](O)C[C@@H]2OC1 [Example 29 (12), ({(3R, 5aR, 6R, 7R, 8aS)-6-[(1E,3R)-4-(3-chloro-5-fluorophenoxy)-3-hydroxy-1-buten-1-yl]-7-hydroxyoctahydro-2H-cyclopenta[b]oxepin-3-yl}methoxy)acetic acid] |  |  |  |  |  | 7.1 nM | > 10000 nM | > 10000 nM |
| O=C(O)CCC[C@H]1CC[C@@H]2[C@@H](/C=C/C(F)(F)COc3ccccc3)[C@H](O)C[C@@H]2OC1 [Example 32, 4-{(3S, 5aR, 6R, 7R, 8aS)-6-[(1E)-3,3-difluoro-4-phenoxy-1-buten-1-yl]-7-hydroxyoctahydro-2H-cyclopenta[b]oxepin-3-yl}butanoic acid] |  |  |  |  |  | 1.6 nM | > 10000 nM | > 10000 nM |

— US11617733B2, “Bicyclic compound and use thereof for medical purposes” (ONO PHARMACEUTICAL CO., LTD., priority 2009, dated 2023)
